Patent US20070128217A1 (priority 2003, published 2007)

Legend:
[1] = tested on: antibodies in sera from SARS patients (sera 1a, 1b, 2, 6, 37, 62, London, SARS-yellow, SARS-green); assay type: binding, human; parameters: Binding of serum 6 to linear peptides of protein X1 of SARS-CoV Urbani / Binding of serum 37 to linear peptides of protein X1 of SARS-CoV Urbani / Binding of serum 6 to looped/cyclic peptide (PEPSCAN-ELISA) / Binding of serum 37 to looped/cyclic peptide (PEPSCAN-ELISA) / Binding of serum 37 to looped/cyclic peptides of protein X1 of SARS-CoV Urbani / Binding of serum 6 to linear peptides of protein X2 / Binding of serum 37 to linear peptides of protein X2 / Binding of serum 37 to looped/cyclic peptides of protein X2 of SARS-CoV Urbani / Binding of serum 6 to linear peptides of protein M of SARS-CoV Urbani / Binding of serum 37 to linear peptides of protein M of SARS-CoV Urbani / Binding of serum 6 to looped/cyclic peptides of protein M of SARS-CoV Urbani / Binding of serum 37 to looped/cyclic peptides of protein M of SARS-CoV Urbani / Binding of serum 6 to linear peptides of protein X3 of SARS-CoV Urbani / Binding of serum 37 to linear peptides of protein X3 of SARS-CoV Urbani / Binding of serum 37 to looped/cyclic peptides of protein X3 of SARS-CoV Urbani / Binding of serum 6 to linear peptides of protein X4 of SARS-CoV Urbani / Binding of serum 37 to linear peptides of protein X4 of SARS-CoV Urbani / Binding of serum 37 to looped/cyclic peptides of protein X4 of SARS-CoV Urbani / Binding of serum 6 to linear peptides of protein X5 of SARS-CoV Urbani / Binding of serum 37 to linear peptides of protein X5 of SARS-CoV Urbani / Binding of serum 37 to looped/cyclic peptides of protein X5 of SARS-CoV Urbani / Binding of serum 6 to linear peptides of protein N of SARS-CoV Urbani / Binding of serum 37 to linear peptides of protein N of SARS-CoV Urbani / Binding of serum 6 to linear peptide (PEPSCAN-ELISA) / Binding of serum 1a to looped/cyclic peptides of protein N of SARS-CoV Urbani / Binding of serum 1b to looped/cyclic peptides of protein N of SARS-CoV Urbani / Binding of serum 2 to looped/cyclic peptides of protein N of SARS-CoV Urbani / Binding of serum 6 to looped/cyclic peptides of protein N of SARS-CoV Urbani / Binding of serum 37 to looped/cyclic peptides of protein N of SARS-CoV Urbani / Binding of serum 62 to looped/cyclic peptides of protein N of SARS-CoV Urbani / Binding of serum London to looped/cyclic peptides of protein N of SARS-CoV Urbani / Binding of serum SARS-green to looped/cyclic peptides of protein N of SARS-CoV Urbani: unit not given here
[2] = tested on: control sera (pooled serum of ten healthy LUMC hospital workers; commercial negative donor pooled serum from the Dutch bloodbank); assay type: binding, human; parameters: Binding of Control serum LUMC to linear peptides / Binding of Control serum Blood-bank to linear peptides / Binding of Control serum LUMC to looped peptides / Binding of Control Serum Blood-Bank to Looped peptides / Binding of Control serum LUMC to linear peptides of the protein M of SARS-CoV Urbani / Binding of Control serum Blood-bank to linear peptides of the protein M of SARS-CoV Urbani / Binding of Control serum LUMC to looped peptides of the protein M of SARS-CoV Urbani / Binding of Control Serum Blood-Bank to Looped peptides of the protein M of SARS-CoV Urbani: unit not given here
[3] = tested on: rabbit serum obtained by immunizing a rabbit with the SARS-CoV strain Frankfurt 1; assay type: binding; parameters: Binding of a rabbit serum to linear peptides / Binding of a rabbit serum to looped peptides / Rabbit serum linear peptides / Rabbit serum looped peptides / Binding of a rabbit serum to linear peptides of protein N of SARS-CoV Urbani (Rabbit serum linear peptides) / Binding of a rabbit serum to looped/cyclic peptides of protein N of SARS-CoV Urbani (Rabbit serum looped peptides): unit not given here
[4] = tested on: recombinant human anti-SARS-CoV antibody 03-018; assay type: binding; parameters: Binding of antibody 03-018 to linear peptides of the N protein of SARS-CoV Urbani / Binding of antibody 03-018 to looped/cyclic peptides of the N protein of SARS-CoV Urbani: unit not given here

| Sequence | Binding of serum 1a to linear peptides of protein N of SARS-CoV Urbani [1] | Binding of serum 1a to looped/cyclic peptides of protein N of SARS-CoV Urbani [1] | Binding of serum 1b to linear peptides of protein N of SARS-CoV Urbani [1] | Binding of serum 1b to looped/cyclic peptides of protein N of SARS-CoV Urbani [1] | Binding of serum 2 to linear peptides of protein N of SARS-CoV Urbani [1] | Binding of serum 2 to looped/cyclic peptides of protein N of SARS-CoV Urbani [1] | Binding of serum 6 to linear peptides of protein N of SARS-CoV Urbani [1] | Binding of serum 6 to looped/cyclic peptides of protein N of SARS-CoV Urbani [1] | Binding of serum 37 to linear peptides of protein N of SARS-CoV Urbani [1] | Binding of serum 37 to looped/cyclic peptides of protein N of SARS-CoV Urbani [1] | Binding of serum 62 to linear peptides of protein N of SARS-CoV Urbani [1] | Binding of serum 62 to looped/cyclic peptides of protein N of SARS-CoV Urbani [1] | Binding of serum London to linear peptides of protein N of SARS-CoV Urbani [1] | Binding of serum London to looped/cyclic peptides of protein N of SARS-CoV Urbani [1] | Binding of serum SARS-green to looped/cyclic peptides of protein N of SARS-CoV Urbani [1] | Binding of serum SARS-yellow to looped/cyclic peptides of protein N of SARS-CoV Urbani [1] | Binding of a rabbit serum to linear peptides of protein N of SARS-CoV Urbani (Rabbit serum linear peptides) [3] | Binding of a rabbit serum to looped/cyclic peptides of protein N of SARS-CoV Urbani (Rabbit serum looped peptides) [3] | Binding of antibody 03-018 to linear peptides of the N protein of SARS-CoV Urbani [4] | Binding of antibody 03-018 to looped/cyclic peptides of the N protein of SARS-CoV Urbani [4] | also measured |
| --- | --- | --- | --- | --- | --- | --- | --- | --- | --- | --- | --- | --- | --- | --- | --- | --- | --- | --- | --- | --- | --- |
| KELSPRWYFYYLGTG | 0.2 | 0.4 | 0.1 | 0.2 | 0.1 | 0.4 | 0.1 | 0.3 | 0.4 | 0.7 | 0.4 | 0.5 | 0.4 | 0.4 | 0.4 | 0.3 | 0.0 | 0.4 | 0.1 | 0.3 | Binding of serum SARS-green to linear peptides of protein N of SARS-CoV Urbani [1]: 0.1; Binding of serum SARS-yellow to linear peptides of protein N of SARS-CoV Urbani [1]: 0.5; Binding of Control Serum Blood-Bank to Looped peptides [2]: 0.7; Binding of Control serum Blood-bank to linear peptides [2]: 0.4; Binding of Control serum LUMC to linear peptides [2]: 0.4; Binding of Control serum LUMC to looped peptides [2]: 0.6 |
| KGFYAEGSRGGSQAS |  | 0.3 |  | 0.2 |  | 0.3 |  | 0.2 |  | 0.4 |  | 0.3 |  | 0.3 | 0.1 | 0.1 | 0.1 | 0.1 | 0.1 | 0.2 | Binding of serum 1a to linear peptide (PEPSCAN-ELISA) [1]: 0.2; Binding of serum 1b to linear peptide (PEPSCAN-ELISA) [1]: 0.1; Binding of serum 2 to linear peptide (PEPSCAN-ELISA) [1]: 0.2; Binding of serum 6 to linear peptide (PEPSCAN-ELISA) [1]: 0.2; Binding of serum 37 to linear peptide (PEPSCAN-ELISA) [1]: 0.6; Binding of serum 62 to linear peptide (PEPSCAN-ELISA) [1]: 0.5; Binding of serum London to linear peptide (PEPSCAN-ELISA) [1]: 0.4; Binding of serum SARS-green to linear peptide (PEPSCAN-ELISA) [1]: 0.2; Binding of serum SARS-yellow to linear peptide (PEPSCAN-ELISA) [1]: 0.5; Binding of Control Serum Blood-Bank to Looped peptides [2]: 0.5; Binding of Control serum Blood-bank to linear peptides [2]: 0.7; Binding of Control serum LUMC to linear peptides [2]: 0.5; Binding of Control serum LUMC to looped peptides [2]: 0.4 |
| KHIDAYKTFPPTEPK | 0.3 | 0.2 | 0.1 | 0.1 | 0.3 | 0.2 | 0.2 | 0.1 | 0.7 | 0.4 | 0.8 | 0.3 | 0.5 | 0.3 | 0.1 | 0.1 | 0.1 | 0.2 | 0.1 | 0.2 | Binding of serum SARS-green to linear peptides of protein N of SARS-CoV Urbani [1]: 0.5; Binding of serum SARS-yellow to linear peptides of protein N of SARS-CoV Urbani [1]: 0.8; Control Serum Blood-Bank Looped peptides [2]: 0.3; Control serum Blood-bank linear peptides [2]: 0.8; Control serum LUMC linear peptides [2]: 0.7; Control serum LUMC looped peptides [2]: 0.3 |
